Experiments:
[1] = compound: C1CN(CCC1(C(=O)N[C@@H](CCO)C2=CC=C(C=C2)Cl)N)C3=NC=NC4=C3C=CN4 [Capivasertib]
How it was run: (§1)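 Cancer cell lines were seeded in 1536-well plates in 7.5 μl DMEM/F12 or RPMI with 10% FBS, held 24 hours at 37°C and 5% CO2, then dosed for 72 hours (final DMSO typically 0.2%). Viability was read by CellTiter-Glo 2.0 luminescence and scaled between blank-well and DMSO-well means. The single-agent IC50 comes from dose responses fitted to a two-parameter logistic curve with a non-linear mixed effects model.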

[2] = compound: C=CCn1c(=O)c2cnc(Nc3ccc(N4CCN(C)CC4)cc3)nc2n1-c1cccc(C(C)(C)O)n1 [AZD1775]
How it was run: as §1

[3] = compound: CC(=O)Nc1cccc(-n2c(=O)n(C3CC3)c(=O)c3c(Nc4ccc(I)cc4F)n(C)c(=O)c(C)c32)c1 [Trametinib]; conditions: max 1 µM
How it was run: as §1

[4] = compound: CC(=O)c1c(C)c2cnc(Nc3ccc(N4CCNCC4)cn3)nc2n(C2CCCC2)c1=O [Palbociclib]; conditions: max 10 µM
How it was run: as §1

[5] = compound: CC(C)n1c(=O)n(C)c2cnc3cc(F)c(-c4ccc(OCCCN5CCCCC5)nc4)cc3c21 [AZD1390]; conditions: max 0.3 µM
How it was run: as §1

[6] = compound: CC1(C)CCC(CN2CCN(c3ccc(C(=O)NS(=O)(=O)c4ccc(NCC5CCOCC5)c([N+](=O)[O-])c4)c(Oc4cnc5[nH]ccc5c4)c3)CC2)=C(c2ccc(Cl)cc2)C1 [Venetoclax]; conditions: max 1 µM
How it was run: as §1

[7] = compound: CC1=C(C(=CC=C1)Cl)NC(=O)C2=CN=C(S2)NC3=CC(=NC(=N3)C)N4CCN(CC4)CCO [Dasatinib]; conditions: max 2 µM
How it was run: as §1

[8] = compound: CC1=CN2[C@@H](C1)C=NC3=CC(=C(C=C3C2=O)OC)OCCCCCOC4=C(C=C5C(=C4)N=C[C@@H]6CC(=CN6C5=O)C)OC [SG3199]; conditions: max 0.001 µM
How it was run: as §1

[9] = compound: CCN(CCO)CCCOc1ccc2c(Nc3cc(CC(=O)Nc4cccc(F)c4)[nH]n3)ncnc2c1 [AZD2811]; conditions: max 1 µM
How it was run: as §1

[10] = compound: CCc1c2c(nc3ccc(O)cc13)-c1cc3c(c(=O)n1C2)COC(=O)[C@]3(O)CC [SN-38]; conditions: max 0.3 µM
How it was run: as §1

[11] = compound: CN(C)CCCOc1ccc(-c2ccc3ncc4c(c3c2)n(C2CCOCC2)c(=O)n4C)cn1 [AZD0156]
How it was run: as §1

[12] = compound: CN(CC[C@H](CSC1=CC=CC=C1)NC2=C(C=C(C=C2)S(=O)(=O)NC(=O)C3=CC=C(C=C3)N4CCC(CC4)[C@H](C5=CC=CC=C5C6=CC=C(C=C6)Cl)O)S(=O)(=O)C(F)(F)F)CCO [AZD4320]; conditions: max 1 µM
How it was run: as §1

[13] = compound: COc1cc(Nc2ncc3c(n2)-c2ccc(Cl)cc2C(c2c(F)cccc2OC)=NC3)ccc1C(=O)O [Alisertib]; conditions: max 10 µM
How it was run: as §1

[14] = compound: COc1cc2ncnc(Nc3ccc(F)c(Cl)c3)c2cc1OCCCN1CCOCC1 [Gefitinib]; conditions: max 10 µM
How it was run: as §1

[15] = compound: COc1cccc(OCCCN)c1-c1cc(Nc2cnc(C#N)cn2)n[nH]1 [Prexasertib]; conditions: max 1 µM
How it was run: as §1

[16] = compound: COc1cccc2c1C(=O)c1c(O)c3c(c(O)c1C2=O)C[C@@](O)(C(=O)CO)C[C@@H]3O[C@H]1C[C@H](N)[C@H](O)[C@H](C)O1 [Doxorubicin]; conditions: max 1 µM
How it was run: as §1

[17] = compound: COc1nnc2ccc(N3CCC(c4ccc(OCCN5CCN(C)C(=O)[C@H]5C)cc4)CC3)nn12 [AZD5153]; conditions: max 1 µM
How it was run: as §1

[18] = compound: CS(=O)(=O)CCNCc1ccc(-c2ccc3ncnc(Nc4ccc(OCc5cccc(F)c5)c(Cl)c4)c3c2)o1 [Lapatinib]; conditions: max 10 µM
How it was run: as §1

[19] = compound: C[C@@H](Nc1cc(F)cc(F)c1)c1cc(C(=O)N(C)C)cc2c(=O)cc(N3CCOCC3)oc12 [AZD8186]; conditions: max 3 µM
How it was run: as §1

[20] = compound: C[C@@H](Oc1cc(-c2cnn(C3CCNCC3)c2)cnc1N)c1c(Cl)ccc(F)c1Cl [Crizotinib]; conditions: max 10 µM
How it was run: as §1

[21] = compound: C[C@@H](c1ccc2nccn2c1)n1nnc2ncc(-c3cnn(C)c3)nc21 [Savolitinib]; conditions: max 1 µM
How it was run: as §1

[22] = compound: C[C@@H]1COCCN1C2=NC(=NC(=C2)C3(CC3)[S@](=N)(=O)C)C4=C5C=CNC5=NC=C4 [AZD6738]; conditions: max 10 µM
How it was run: as §1

[23] = compound: Cc1c2c(nn1C)CSCc1cc(n(C)n1)CSc1cc(c3ccccc3c1)OCCCc1c(C(=O)O)n(C)c3c-2c(Cl)ccc13 [AZD5991]; conditions: max 1 µM
How it was run: as §1

[24] = compound: Cc1cc2ncnn2cc1Nc1ncc2c(n1)n(C1CCOCC1)c(=O)n2C [AZD7648]; conditions: max 10 µM
How it was run: as §1

[25] = compound: Cc1nc(-c2cn3c(n2)-c2ccc(-c4cnn(C(C)(C)C(N)=O)c4)cc2OCC3)n(C(C)C)n1 [Taselisib]; conditions: max 10 µM
How it was run: as §1

[26] = compound: Cn1cnc2c(F)c(Nc3ccc(Br)cc3Cl)c(C(=O)NOCCO)cc21 [Selumetinib]
How it was run: as §1

[27] = compound: O=C(c1cc(Cc2n[nH]c(=O)c3ccccc23)ccc1F)N1CCN(C(=O)C2CC2)CC1 [Olaparib]; conditions: max 10 µM
How it was run: as §1

Cell Line | IC50, cell viability 72 h ([1]; max 10 µM) [µM] | IC50, cell viability 72 h ([2]; max 3 µM) [µM] | IC50, cell viability 72 h [3] [µM] | IC50, cell viability 72 h [4] [µM] | IC50, cell viability 72 h [5] [µM] | IC50, cell viability 72 h [6] [µM] | IC50, cell viability 72 h [7] [µM] | IC50, cell viability 72 h [8] [µM] | IC50, cell viability 72 h [9] [µM] | IC50, cell viability 72 h [10] [µM] | IC50, cell viability 72 h ([11]; max 3 µM) [µM] | IC50, cell viability 72 h [12] [µM] | IC50, cell viability 72 h [13] [µM] | IC50, cell viability 72 h [14] [µM] | IC50, cell viability 72 h [15] [µM] | IC50, cell viability 72 h [16] [µM] | IC50, cell viability 72 h [17] [µM] | IC50, cell viability 72 h [18] [µM] | IC50, cell viability 72 h [19] [µM] | IC50, cell viability 72 h [20] [µM] | IC50, cell viability 72 h [21] [µM] | IC50, cell viability 72 h [22] [µM] | IC50, cell viability 72 h [23] [µM] | IC50, cell viability 72 h [24] [µM] | IC50, cell viability 72 h [25] [µM] | IC50, cell viability 72 h ([26]; max 10 µM) [µM] | IC50, cell viability 72 h [27] [µM] | IC50, cell viability 72 h ([1]; max 3 µM) [µM] | IC50, cell viability 72 h ([2]; max 1 µM) [µM] | IC50, cell viability 72 h ([11]; max 1 µM) [µM] | IC50, cell viability 72 h ([26]; max 3 µM) [µM]
SK-N-DZ (Neuroblastoma) | > 10 | 0.278 | > 1 | 5.33 | > 0.3 | > 1 | > 2 | > 0.001 | > 1 | 0.0247 | > 3 | 0.628 | 0.256 | > 10 | 0.0169 | 0.748 | 0.294 | 5.56 | > 3 | 1.86 | > 1 | 2.39 | > 1 | > 10 | > 10 | > 10 | > 10 | – | – | – | –
ATN-1 (T-Lymphoblastic Leukemia) | 2.02 | 0.0601 | > 1 | 5.84 | > 0.3 | > 1 | 1.7 | > 0.001 | 0.0188 | 0.00553 | > 3 | 0.13 | 0.0401 | > 10 | 0.00209 | 0.0454 | 0.482 | > 10 | 2.2 | 1.41 | > 1 | 0.664 | 0.109 | > 10 | 0.083 | > 10 | > 10 | – | – | – | –
HT-144 (Melanoma) | 5.45 | 0.25 | 0.0179 | > 10 | > 0.3 | > 1 | > 2 | > 0.001 | > 1 | 0.0681 | > 3 | > 1 | > 10 | > 10 | 0.139 | > 1 | 0.981 | 8.83 | > 3 | 4.71 | > 1 | 3.48 | 0.221 | > 10 | 5.01 | 0.632 | > 10 | – | – | – | –
NCI-H2170 (Squamous Cell Lung Carcinoma) | 5.47 | 0.678 | > 1 | > 10 | > 0.3 | > 1 | > 2 | > 0.001 | 0.391 | 0.0136 | > 3 | 0.665 | 1.1 | 1.98 | 0.0468 | 0.539 | > 1 | 0.362 | > 3 | 7.38 | > 1 | 7.67 | > 1 | > 10 | 1.54 | > 10 | > 10 | – | – | – | –
RVH-421 (Melanoma) | – | – | > 1 | – | – | > 1 | – | > 0.001 | > 1 | > 0.3 | – | > 1 | > 10 | – | > 1 | > 1 | – | – | 3 | – | – | > 10 | > 1 | > 10 | > 10 | – | > 10 | > 3 | > 1 | > 1 | > 3
RS4-11 (B-Lymphoblastic Leukemia) | 9.4 | 0.268 | > 1 | 4.98 | > 0.3 | 0.00579 | > 2 | > 0.001 | 0.00884 | 0.00479 | > 3 | 0.00382 | 0.0322 | > 10 | 0.0167 | 0.46 | 0.191 | > 10 | > 3 | 1.52 | > 1 | 1.39 | 0.723 | > 10 | 7.52 | > 10 | > 10 | – | – | – | –
JURL-MK1 (Chronic Myelogenous Leukemia) | > 10 | 0.0851 | 0.00576 | 0.248 | > 0.3 | > 1 | < 0.002 | > 0.001 | > 1 | 0.0098 | > 3 | 0.322 | 0.297 | > 10 | 0.00255 | 0.115 | 0.0613 | > 10 | > 3 | 0.32 | > 1 | 0.228 | 0.778 | > 10 | > 10 | 0.339 | > 10 | – | – | – | –
NCI-H1048 (Small Cell Lung Carcinoma) | 9.21 | 0.798 | > 1 | > 10 | > 0.3 | > 1 | > 2 | > 0.001 | 0.323 | 0.00299 | > 3 | 0.505 | 0.497 | > 10 | 0.132 | 0.261 | > 1 | > 10 | > 3 | > 10 | > 1 | > 10 | – | > 10 | 0.348 | > 10 | > 10 | – | – | – | –

Reference: the supplement of paper PMC11061612
